In patent US11584714B2 (priority 2018, dated 2023):
Counter-ions that a name gives are not always drawn. Like-named read-outs stand apart in the source and are kept apart here.

Assays:
Type in all cases: biochemical
MASP-2 (CCP1-CCP2-SP) = MASP-2 (CCP1-CCP2-SP) (Homo sapiens (Human), UniProt O00187); assay: biochemical
mMASP-2 = mMASP-2 (Mus musculus (Mouse), UniProt Q91WP0); assay: Enzymatic inhibition of mMASP-2; details: read-out: mMASP-2 Ki
human α-thrombin = human α-thrombin (Homo sapiens (Human), UniProt P00734); assay: Enzymatic assay for thrombin (Boc-VPR-AMC substrate)
[1] = selectivity for MASP-2 inhibition versus thrombin

Chain of mMASP-2 (Q91WP0 20-685): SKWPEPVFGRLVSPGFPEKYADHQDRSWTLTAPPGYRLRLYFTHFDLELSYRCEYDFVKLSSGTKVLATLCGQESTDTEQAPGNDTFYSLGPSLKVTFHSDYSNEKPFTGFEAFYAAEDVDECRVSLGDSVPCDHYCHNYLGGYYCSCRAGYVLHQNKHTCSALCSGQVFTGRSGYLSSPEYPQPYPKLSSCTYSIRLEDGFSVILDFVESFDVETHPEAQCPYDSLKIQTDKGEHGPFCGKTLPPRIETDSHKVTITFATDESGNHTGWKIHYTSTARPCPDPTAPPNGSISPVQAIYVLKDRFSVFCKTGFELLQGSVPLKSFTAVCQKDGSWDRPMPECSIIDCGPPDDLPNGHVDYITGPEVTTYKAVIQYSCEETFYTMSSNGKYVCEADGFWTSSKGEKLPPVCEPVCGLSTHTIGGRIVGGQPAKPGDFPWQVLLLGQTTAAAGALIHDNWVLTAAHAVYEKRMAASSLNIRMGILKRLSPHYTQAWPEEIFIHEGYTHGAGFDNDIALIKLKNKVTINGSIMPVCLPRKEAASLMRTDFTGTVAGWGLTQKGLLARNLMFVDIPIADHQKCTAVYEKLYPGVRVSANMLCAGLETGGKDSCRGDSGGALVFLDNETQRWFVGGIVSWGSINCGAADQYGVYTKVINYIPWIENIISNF
Chain of MASP-2 (CCP1-CCP2-SP) (O00187 445-686): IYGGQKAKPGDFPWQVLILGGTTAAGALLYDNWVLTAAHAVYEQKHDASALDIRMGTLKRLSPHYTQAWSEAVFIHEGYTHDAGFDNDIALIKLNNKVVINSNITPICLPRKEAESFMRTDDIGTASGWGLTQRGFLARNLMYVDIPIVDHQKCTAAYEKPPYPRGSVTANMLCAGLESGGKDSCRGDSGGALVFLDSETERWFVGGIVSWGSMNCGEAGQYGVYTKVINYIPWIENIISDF

Compound | Ki (MASP-2 (CCP1-CCP2-SP)) | Ki (mMASP-2) | Ki (human α-thrombin; read-out: Thrombin Ki) | MASP-2 vs. thrombin selectivity (MASP-2 (CCP1-CCP2-SP); MASP-2 inhibition versus thrombin) | Ki (MASP-2 (CCP1-CCP2-SP); read-out: MASP-2 Ki) | MASP-2 vs. thrombin selectivity (MASP-2 (CCP1-CCP2-SP); [1]) | Ki (human α-thrombin; Thrombin Ki (μM))
C[C@H](NC(=O)[C@H]1C[C@H](c2ccccc2)CN1)C(=O)NCc1ccc2nccn2c1 [compound 1434, (2R,4R)—N—((S)-1-((Imidazo[1,2-a]pyridin-6-ylmethyl)amino)-1-oxopropan-2-yl)-4-phenylpyrrolidine-2-carboxamide Dihydrochloride] | 10000 to 25000 nM | 10000 to 25000 nM | > 25 µM |  |  |  | 
C[C@H](NC(=O)[C@H](N)CCc1ccc(Cl)cc1)C(=O)NCc1ccc(C(=N)N)cc1 [compound 1080] |  | < 500 nM | < 0.5 µM | ** (5.0 to 25-fold) | < 500 nM |  | 
N=C(N)c1ccc(CNC(=O)[C@H](CCC(N)=O)NC(=O)[C@H](N)CCc2ccccc2)cc1 [compound 1335, (S)-2-((R)-2-Amino-4-phenylbutanamido)-N-(4-carbamimidoylbenzyl)pentanediamide Di-trifluoroacetate] |  | < 500 nM |  |  | < 500 nM | *** (≥25 to <100-fold) | 2.5 to 10 µM
N=C(N)c1ccc(CNC(=O)[C@H](Cc2ccc(O)cc2)NC(=O)[C@H](N)CCc2ccccc2)cc1 [compound 1326, (R)-2-Amino-N—((S)-1-((4-carbamimidoylbenzyl)amino)-3-(4-hydroxyphenyl)-1-oxopropan-2-yl)-4-phenylbutanamide Di-trifluoroacetate salt] |  | < 500 nM |  |  | < 500 nM | *** (≥25 to <100-fold) | 10 to 25 µM
Cc1nc(N)ccc1CNC(=O)[C@H](C)NC(=O)[C@H]1C[C@H](Cc2ccccc2-c2ccccc2)CN1 [compound 1373, (2R,4S)-4-([1,1′-Biphenyl]-2-ylmethyl)-N-((S)-1-(((6-amino-2-methylpyridin-3-yl)methyl)amino)-1-oxopropan-2-yl)pyrrolidine-2-carboxamide Di-trifluoroacetate salt] |  | < 500 nM |  |  | < 500 nM | *** (≥25 to <100-fold) | 0.5 to 2.5 µM
Cc1nc(N)ccc1CNC(=O)[C@H](C)NC(=O)[C@H]1C[C@H](Cc2ccc(F)c(Cl)c2)CN1CCC(=O)O [compound 1473, 3-((2R,4S)-2-(((S)-1-(((6-Amino-2-methylpyridin-3-yl)methyl)amino)-1-oxopropan-2-yl)carbamoyl)-4-(3-chloro-4-fluorobenzyl)pyrrolidin-1-yl)propanoic acid Trifluoroacetate salt] |  | < 500 nM | > 25 µM |  | < 500 nM |  | 
Cc1cc(Cl)cc(CNC(=O)[C@H](C)NC(=O)[C@H]2C[C@H](Cc3ccccc3)CN2)c1O [compound 1307, (2R,4S)-4-Benzyl-N-((S)-1-((5-chloro-2-hydroxy-3-methylbenzyl)amino)-1-oxopropan-2-yl)pyrrolidine-2-carboxamide Hydrochloride] |  | < 500 nM | > 25 µM |  | < 500 nM | **** (≥100-fold) | 
Cc1cc(Cl)cc(CNC(=O)[C@H](C)NC(=O)[C@H](N)CCc2ccccc2)c1O [compound 1299, (R)-2-Amino-N—((S)-1-((5-chloro-2-hydroxy-3-methylbenzyl)amino)-1-oxopropan-2-yl)-4-phenylbutanamide Hydrochloride] |  | 10000 to 25000 nM | > 25 µM |  | < 500 nM | **** (≥100-fold) | 
C[C@H](NC(=O)[C@H]1C[C@H](c2ccccc2)CN1)C(=O)NCc1cnc2[nH]cc(Cl)c2c1 [compound 1329, (2R,4R)—N—((S)-1-(((3-chloro-1H-pyrrolo[2,3-b]pyridin-5-yl)methyl)amino)-1-oxopropan-2-yl)-4-phenylpyrrolidine-2-carboxamide Dihydrochloride] |  | < 500 nM |  |  | < 500 nM | * (≥1.0 to <5.0-fold) | 0.5 to 2.5 µM
Cc1nc(N)ccc1CNC(=O)[C@H](C)NC(=O)[C@H]1C[C@H](Cc2ccc3ccccc3c2)CN1 [compound 1338, (2R,4S)—N—((S)-1-(((6-Amino-2-methylpyridin-3-yl)methyl)amino)-1-oxopropan-2-yl)-4-(naphthalen-2-ylmethyl)pyrrolidine-2-carboxamide Dihydrochloride] |  | < 500 nM | > 25 µM |  | < 500 nM | **** (≥100-fold) | 
Cc1nc(N)ccc1CNC(=O)[C@H](C)NC(=O)[C@H]1C[C@H](Cc2ccc(C3CCC3)cc2)CN1 [compound 1379, (2R,4S)—N—((S)-1-(((6-Amino-2-methylpyridin-3-yl)methyl)amino)-1-oxopropan-2-yl)-4-(4-cyclobutylbenzyl)pyrrolidine-2-carboxamide Di-trifluoroacetate salt] |  | < 500 nM | > 25 µM |  | < 500 nM | **** (≥100-fold) | 
Cc1nc(N)ccc1CNC(=O)[C@H](C)NC(=O)[C@H]1C[C@@H](C(C)c2ccccc2)CN1 (mixture of isomers) [compound 1344, (2R,4S)—N—((S)-1-(((6-Amino-2-methylpyridin-3-yl)methyl)amino)-1-oxopropan-2-yl)-4-((±)-1-phenylethyl)pyrrolidine-2-carboxamide Dihydrochloride] |  | < 500 nM | 2.5 to 10 µM |  | < 500 nM | **** (≥100-fold) | 
Cc1nc(N)ccc1CNC(=O)[C@H](C)NC(=O)[C@H]1C[C@@H](Cc2ccccc2)CN1 [compound 1283, (2R,4R)—N—((S)-1-(((6-Amino-2-methylpyridin-3-yl)methyl)amino)-1-oxopropan-2-yl)-4-benzylpyrrolidine-2-carboxamide] |  | 500 to 2500 nM |  |  | < 500 nM | *** (≥25 to <100-fold) | 2.5 to 10 µM
C[C@H](NC(=O)[C@@H](CCc1ccccc1)NCc1ccc(N2CCN(S(C)(=O)=O)CC2)cc1)C(=O)NCc1ccc(C(=N)N)cc1 [compound 1250, (R)—N—((S)-1-((4-Carbamimidoylbenzyl)amino)-1-oxopropan-2-yl)-2-((4-(4-(methylsulfonyl)piperazin-1-yl)benzyl)amino)-4-phenylbutanamide] |  | < 500 nM | < 0.5 µM |  | < 500 nM | * (≥1.0 to <5.0-fold) | 
C[C@H](NC(=O)c1cc(-c2cccc3ccccc23)c[nH]1)C(=O)NCc1ccc(C(=N)N)cc1 [compound 1234, (S)—N-(1-((4-Carbamimidoylbenzyl)amino)-1-oxopropan-2-yl)-4-(naphthalen-1-yl)-1H-pyrrole-2-carboxamide] |  | < 500 nM |  |  | < 500 nM |  | 
C[C@H](NC(=O)[C@@H]1C[C@@H](c2ccccc2)CCN1)C(=O)NCc1ccc(C(=N)N)cc1 [compound 1486, (2S,4S)—N—((S)-1-((4-carbamimidoylbenzyl)amino)-1-oxopropan-2-yl)-4-phenylpiperidine-2-carboxamide Dihydrochloride] |  | < 500 nM |  |  |  |  | 
Cc1nc(N)ccc1CNC(=O)[C@H](C)NC(=O)[C@H]1C[C@@H](c2cccc3ccccc23)CCN1 [compound 1297, (2R,4S)—N—((S)-1-(((6-Amino-2-methylpyridin-3-yl)methyl)amino)-1-oxopropan-2-yl)-4-(naphthalen-1-yl)piperidine-2-carboxamide Dihydrochloride] |  | < 500 nM |  |  | < 500 nM |  | 
C[C@H](NC(=O)[C@H](N)CCc1ccccc1)C(=O)NCCOc1ccc(N)nc1 [compound 1215] |  | < 25000 nM | > 25 µM |  |  |  | 
(2R,4R)-4-([1,1′-Biphenyl]-3-yl)-N-((S)-1-(((6-amino-2-methylpyridin-3-yl)methyl)amino)-1-oxopropan-2-yl)pyrrolidine-2-carboxamide Di-trifluoroacetate salt [compound 1359] |  | 10000 to 25000 nM |  |  |  |  | 
C[C@H](NC(=O)[C@H](N)CCc1ccccc1)C(=O)NCc1ccc2c(N)n[nH]c2c1 [compound 1039] |  | < 25000 nM | > 25 µM |  |  |  | 
Cc1ccc(CC[C@@H](N)C(=O)N[C@@H](C)C(=O)NCc2ccc(C(=N)N)cc2)cc1 [compound 1043] |  | < 500 nM |  |  |  |  | 
Cc1nc(N)ccc1CNC(=O)[C@H](C)NC(=O)[C@H]1C[C@H](Cc2cccc(C(F)(F)F)c2)CN1 [compound 1318, (2R,4S)—N—((S)-1-(((6-Amino-2-methylpyridin-3-yl)methyl)amino)-1-oxopropan-2-yl)-4-(3-(trifluoromethyl)benzyl)pyrrolidine-2-carboxamide Dihydrochloride] |  | < 500 nM |  |  | < 500 nM |  | 
Cc1nc(N)ccc1CNC(=O)[C@H](C)NC(=O)[C@H]1C[C@H](c2cccc3ccccc23)CCN1 [compound 1342, (2R,4R)—N—((S)-1-(((6-Amino-2-methylpyridin-3-yl)methyl)amino)-1-oxopropan-2-yl)-4-(naphthalen-1-yl)piperidine-2-carboxamide Dihydrochloride] |  | 500 to 2500 nM |  |  | < 500 nM |  | 
N=C(N)c1ccc(CNC(=O)[C@@H]2CCN2C(=O)[C@H](NCC(=O)O)C2CCCCC2)cc1 [compound 999, melagatran, reference compound] |  | < 500 nM |  |  |  |  | 
C[C@H](NC(=O)[C@H]1C[C@H](c2ccccc2)CCN1)C(=O)NCc1ccc(C(=N)N)cc1 [compound 1485, (2R,4R)—N—((S)-1-((4-carbamimidoylbenzyl)amino)-1-oxopropan-2-yl)-4-phenylpiperidine-2-carboxamide Dihydrochloride] |  | < 500 nM |  |  |  |  | 
C[C@H](NC(=O)[C@H]1C[C@@H](c2ccccc2)CCN1)C(=O)NCc1ccc(C(=N)N)cc1 [compound 1065] |  | < 500 nM |  |  |  |  | 
C[C@H](OC(=O)[C@H](N)CCc1ccccc1)C(=O)NCc1ccc(C(=N)N)cc1 [compound 1315, (S)-1-((4-Carbamimidoylbenzyl)amino)-1-oxopropan-2-yl (R)-2-amino-4-phenylbutanoate Hydrochloride] |  | < 500 nM |  |  |  | * (≥1.0 to <5.0-fold) | 
C[C@H](NC(=O)C1CCC(c2ccccc2)CN1)C(=O)NCc1ccc(C(=N)N)cc1 (single isomer, unassigned) [compound 1067] |  | < 500 nM |  |  |  |  | 
C[C@H](NC(=O)[C@H]1C[C@](O)(c2ccccc2)CN1)C(=O)NCc1ccc(C(=N)N)cc1 [compound 1071] |  | < 500 nM |  |  |  |  | 
